# Measurements: patent publication US20240132513A1, “BENZAZEPINE DERIVATIVES, COMPOSITIONS, AND METHODS FOR TREATING COGNITIVE IMPAIRMENT” (AGENEBIO, INC., priority 2022, published 2024)
# Where two headings read alike, the source gives them in different places.
# Columns and labels:
# α5β3γ2 GABAA R = α5β3γ2 GABAA R (Homo sapiens, UniProt P18507+P31644); test: Binding activity on GABAA R: inhibition of [3H]Ro15-1788 binding, α5 containing receptor
# In short: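 Membranes from dexamethasone-induced (0.5 μM, 1 day) Ltk cells stably expressing α5β3γ2 receptors, 0.2 mg/ml protein, incubated with [3H]Ro15-1788 for 1 h at 4 °C in 50 mM KH2PO4/1 mM EDTA/0.2 M KCl, pH 7.4. Nonspecific binding with 10 μM diazepam; bound ligand by GF/B filtration and scintillation counting, triplicates.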
# GABAA R (α5β2γ2) = target: T1, GABAA R (α5β2γ2) (Homo sapiens, UniProt P18507+P31644); test: Positive allosteric modulator activity: potentiation of EC20 GABA current in oocytes; format: cell-based
# T1 construct: expressed in transfected cells
# T1 sequence (P31644 32-462): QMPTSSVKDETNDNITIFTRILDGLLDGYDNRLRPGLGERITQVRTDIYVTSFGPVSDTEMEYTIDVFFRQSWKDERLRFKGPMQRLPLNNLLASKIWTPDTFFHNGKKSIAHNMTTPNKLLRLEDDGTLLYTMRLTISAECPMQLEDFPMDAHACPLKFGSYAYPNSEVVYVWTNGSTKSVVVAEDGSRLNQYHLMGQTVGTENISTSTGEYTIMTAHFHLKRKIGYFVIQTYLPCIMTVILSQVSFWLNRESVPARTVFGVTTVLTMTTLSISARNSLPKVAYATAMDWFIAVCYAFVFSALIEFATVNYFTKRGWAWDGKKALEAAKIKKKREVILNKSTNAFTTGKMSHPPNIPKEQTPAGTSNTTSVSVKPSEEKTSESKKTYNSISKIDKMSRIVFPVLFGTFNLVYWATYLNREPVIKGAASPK
# T1 sequence (P47870 25-512 partner limits assumed): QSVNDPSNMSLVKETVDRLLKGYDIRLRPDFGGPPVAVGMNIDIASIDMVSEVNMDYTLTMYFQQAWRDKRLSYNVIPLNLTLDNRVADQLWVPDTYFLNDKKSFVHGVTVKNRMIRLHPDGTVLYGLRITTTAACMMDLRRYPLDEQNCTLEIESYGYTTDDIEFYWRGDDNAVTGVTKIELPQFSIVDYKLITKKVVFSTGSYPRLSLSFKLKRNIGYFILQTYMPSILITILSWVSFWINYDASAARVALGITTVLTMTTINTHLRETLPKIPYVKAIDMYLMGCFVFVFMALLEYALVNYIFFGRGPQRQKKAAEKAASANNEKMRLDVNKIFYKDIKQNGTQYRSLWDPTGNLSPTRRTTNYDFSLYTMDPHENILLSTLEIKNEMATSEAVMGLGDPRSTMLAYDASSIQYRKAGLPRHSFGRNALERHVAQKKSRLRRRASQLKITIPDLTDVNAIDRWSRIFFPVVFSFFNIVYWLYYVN
# T1 sequence (P18507 40-475): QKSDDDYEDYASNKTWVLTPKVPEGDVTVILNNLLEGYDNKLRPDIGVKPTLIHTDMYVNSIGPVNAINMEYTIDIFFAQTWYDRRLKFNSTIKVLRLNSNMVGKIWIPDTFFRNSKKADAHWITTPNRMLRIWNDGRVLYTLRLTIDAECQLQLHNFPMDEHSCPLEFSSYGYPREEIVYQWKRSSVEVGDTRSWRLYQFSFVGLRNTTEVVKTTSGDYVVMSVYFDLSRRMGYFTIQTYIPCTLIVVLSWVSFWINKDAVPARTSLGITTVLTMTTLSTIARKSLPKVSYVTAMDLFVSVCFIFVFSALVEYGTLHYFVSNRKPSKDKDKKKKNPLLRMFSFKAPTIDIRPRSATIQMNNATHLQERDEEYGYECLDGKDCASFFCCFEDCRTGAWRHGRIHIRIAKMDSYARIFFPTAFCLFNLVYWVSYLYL
# In short: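 Xenopus oocytes injected with 1 ng α5:β2:γ2 cDNA (1:1:10 by weight), tested day 2, voltage-clamped at −60 mV under MBS superfusion.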
# [1] = ranges of the column heads, [3H]Ro15-1788, Ltk cell membranes
# [2] = read-out: GABA α5 Functional Data: potentiation
# [3] = read-out: GABA α5 Functional Data: potentiation, @ 100 nM, EC20 GABA, ranges of the column heads
# Sequence of α5β3γ2 GABAA R (P31644 32-462): as the sequence (P31644 32-462) above
# Sequence of α5β3γ2 GABAA R (P28472 26-473 partner): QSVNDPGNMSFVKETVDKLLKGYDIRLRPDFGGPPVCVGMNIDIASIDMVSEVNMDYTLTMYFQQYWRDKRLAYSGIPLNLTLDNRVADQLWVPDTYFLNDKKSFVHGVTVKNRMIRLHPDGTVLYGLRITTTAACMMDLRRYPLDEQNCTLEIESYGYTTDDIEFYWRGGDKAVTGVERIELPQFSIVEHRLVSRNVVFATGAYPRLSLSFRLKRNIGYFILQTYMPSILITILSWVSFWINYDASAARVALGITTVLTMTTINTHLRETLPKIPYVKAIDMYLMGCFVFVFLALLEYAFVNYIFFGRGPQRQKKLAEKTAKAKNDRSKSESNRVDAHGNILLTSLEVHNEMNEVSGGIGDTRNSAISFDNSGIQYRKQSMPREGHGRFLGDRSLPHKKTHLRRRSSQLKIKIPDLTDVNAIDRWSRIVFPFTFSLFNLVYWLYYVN
# Sequence of α5β3γ2 GABAA R (P18507 40-475): as the sequence (P18507 40-475) above
SMILES,Ki (α5β3γ2 GABAA R; [1]) [nM],activation at 0.1 µM (GABAA R (α5β2γ2); [2]) [%],Ki (α5β3γ2 GABAA R) [nM],activation at 0.1 µM (GABAA R (α5β2γ2); [3]) [%]
COc1ccc2c(c1)-c1nn(C(C)C)cc1Cc1c(-c3nc(C4CC4)no3)ncn1-2 [Compound 169],< 100,5 to 20,–,–
COCc1noc(-c2ncn3c2Cc2cn(C)nc2-c2cc(OC)ccc2-3)n1 [Compound 170],–,–,< 100,20 to 50
COc1ccc2c(c1)-c1nn(CC3CC3)cc1Cc1c(-c3nc(C4CC4)no3)ncn1-2 [Compound 171],–,–,< 100,5 to 20
Clc1ccc2c(c1)-c1nn(CC3CC3)cc1Cc1c(-c3ncco3)ncn1-2 [Compound 172],< 100,5 to 20,–,–
COc1ccc(Cn2ncc3c2-c2cc(OC)ccc2-n2cnc(-c4noc(COCC(F)(F)F)n4)c2C3)cc1 [Compound 173],–,–,< 100,5 to 20
COc1ccc2c(c1)-c1[nH]ncc1Cc1c(-c3noc(COCC(F)(F)F)n3)ncn1-2 [Compound 174],–,–,< 100,20 to 50
CCn1cc2c(n1)-c1cc(Cl)ccc1-n1cnc(-c3noc(C(C)C)n3)c1C2 [Compound 175],< 100,20 to 50,–,–
CCn1cc2c(n1)-c1cc(Cl)ccc1-n1cnc(-c3noc(C4CC4)n3)c1C2 [Compound 176],< 100,5 to 20,–,–
CCn1cc2c(n1)-c1cc(Cl)ccc1-n1cnc(C3=N[C@H](C(C)C)CO3)c1C2 [Compound 177],–,–,< 100,5 to 20
CCn1cc2c(n1)-c1cc(Cl)ccc1-n1cnc(C3=N[C@H](c4ccccc4)CO3)c1C2 [Compound 178],–,–,< 100,20 to 50
CCn1cc2c(n1)-c1cc(Cl)ccc1-n1cnc(C3=N[C@@H](c4ccccc4)CO3)c1C2 [Compound 179],–,–,< 100,20 to 50
COc1ccc2c(c1)-c1n[nH]cc1Cc1c(-c3noc(C(C)(C)OC)n3)ncn1-2 [Compound 181],< 100,> 50,–,–
COc1ccc2c(c1)-c1nn(C)cc1Cc1c(-c3noc(COCC(F)(F)F)n3)ncn1-2 [Compound 183],–,–,< 100,> 50
COc1ccc2c(c1)-c1c(cnn1C)Cc1c(-c3noc(COCC(F)(F)F)n3)ncn1-2 [Compound 184],< 100,> 50,–,–
COc1ccc2c(c1)-c1nn(C)cc1Cc1c(-c3noc(C(C)(C)OC)n3)ncn1-2 [Compound 185],–,–,< 100,20 to 50
COc1ccc2c(c1)-c1[nH]ncc1Cc1c(-c3noc(C4COCCO4)n3)ncn1-2 (stereo not drawn) [Compound 187],–,–,< 100,20 to 50
COc1ccc2c(c1)-c1[nH]ncc1Cc1c(-c3noc(C4(OC)CC4)n3)ncn1-2 [Compound 188],< 100,> 50,–,–
COCC1COC(c2ncn3c2Cc2cn(C)nc2-c2cc(Cl)ccc2-3)=N1 (stereo not drawn) [Compound 189],–,–,< 100,20 to 50
Cn1cc2c(n1)-c1cc(Cl)ccc1-n1cnc(-c3cnn(Cc4ccccn4)c3)c1C2 [Compound 190],–,–,< 100,20 to 50
CCn1cc2c(n1)-c1cc(Cl)ccc1-n1cnc(-c3nc(C4CCOC4)no3)c1C2 (stereo not drawn) [Compound 192],< 100,20 to 50,–,–
CC(C)c1noc(-c2ncn3c2Cc2cn(CC4CCCO4)nc2-c2cc(Cl)ccc2-3)n1 (stereo not drawn) [Compound 193],–,–,< 100,20 to 50
CCn1cc2c(n1)-c1cc(Cl)ccc1-n1cnc(-c3noc(COC4CCCC4)n3)c1C2 [Compound 194],–,–,< 100,20 to 50
CCn1cc2c(n1)-c1cc(Cl)ccc1-n1cnc(-c3noc(C4COCCO4)n3)c1C2 (stereo not drawn) [Compound 195],–,–,< 100,5 to 20
CCn1cc2c(n1)-c1cc(Cl)ccc1-n1cnc(-c3noc(COC(C)(C)C)n3)c1C2 [Compound 197],–,–,< 100,5 to 20
CCn1cc2c(n1)-c1cc(Cl)ccc1-n1cnc(-c3noc(C4(OC)CC4)n3)c1C2 [Compound 198],< 100,20 to 50,–,–
FC(F)(F)c1noc(-c2ncn3c2Cc2cn(CC4CCOC4)nc2-c2cc(Cl)ccc2-3)n1 (stereo not drawn) [Compound 200],< 100,20 to 50,–,–

SMILES,Ki (α5β3γ2 GABAA R; [1]) [nM],activation at 0.1 µM (GABAA R (α5β2γ2); [2]) [%],Ki (α5β3γ2 GABAA R) [nM],activation at 0.1 µM (GABAA R (α5β2γ2); [3]) [%]
CC(C)c1noc(-c2ncn3c2Cc2cn(CC4CCOC4)nc2-c2cc(Cl)ccc2-3)n1 (stereo not drawn) [Compound 201],–,–,< 100,5 to 20
COc1ccc2c(c1)-c1nn(C)cc1Cc1c(-c3noc(C4COC4)n3)ncn1-2 [Compound 202],–,–,< 100,20 to 50
COc1ccc2c(c1)-c1nn(C)cc1Cc1c(-c3noc(C4(OC)CC4)n3)ncn1-2 [Compound 203],–,–,< 100,20 to 50
COc1ccc2c(c1)-c1nn(C)cc1Cc1c(-c3noc(C4(F)CC4)n3)ncn1-2 [Compound 205],–,–,< 100,20 to 50
COc1ccc2c(c1)-c1c(cnn1C)Cc1c(-c3noc(C4(F)CC4)n3)ncn1-2 [Compound 206],–,–,< 100,20 to 50
COc1ccc2c(c1)-c1nn(C)cc1Cc1c(-c3noc(C4COCCO4)n3)ncn1-2 (stereo not drawn) [Compound 207],–,–,< 100,20 to 50
Cn1cc2c(n1)-c1cc(Cl)ccc1-n1cnc(-c3cnn(Cc4cccnc4)c3)c1C2 [Compound 208],–,–,< 100,5 to 20
Cc1nnc(-c2ncn3c2Cc2cn(C)nc2-c2cc(Cl)ccc2-3)o1 [Compound 209],–,–,< 100,20 to 50
Cn1cc2c(n1)-c1cc(Cl)ccc1-n1cnc(-c3nnc(C(F)(F)F)o3)c1C2 [Compound 210],–,–,< 100,20 to 50
Cn1cc2c(n1)-c1cc(Cl)ccc1-n1cnc(-c3noc(COC4CCCC4)n3)c1C2 [Compound 211],–,–,< 100,20 to 50
Cn1cc2c(n1)-c1cc(Cl)ccc1-n1cnc(-c3nnc(C4CCOC4)o3)c1C2 (stereo not drawn) [Compound 212],< 100,5 to 20,–,–
Cn1cc2c(n1)-c1cc(Cl)ccc1-n1cnc(-c3noc(C4COCCO4)n3)c1C2 (stereo not drawn) [Compound 213],–,–,< 100,> 50
COC(C)(C)c1nc(-c2ncn3c2Cc2cn(C)nc2-c2cc(Cl)ccc2-3)no1 [Compound 214],–,–,< 100,> 50
Cn1cc2c(n1)-c1cc(Cl)ccc1-n1cnc(-c3noc(COC(C)(C)C)n3)c1C2 [Compound 215],–,–,< 100,20 to 50
COC1(c2nc(-c3ncn4c3Cc3cn(C)nc3-c3cc(Cl)ccc3-4)no2)CC1 [Compound 216],–,–,< 100,5 to 20
Cn1cc2c(n1)-c1cc(Cl)ccc1-n1cnc(-c3noc(COCC(F)(F)F)n3)c1C2 [Compound 217],–,–,< 100,20 to 50
Cn1cc2c(n1)-c1cc(Cl)ccc1-n1cnc(-c3noc(C4(F)CC4)n3)c1C2 [Compound 218],–,–,< 100,20 to 50
Cn1cc2c(n1)-c1cc(Cl)ccc1-n1cnc(-c3nc(C4CCOCC4)no3)c1C2 [Compound 219],–,–,< 100,5 to 20
COc1ccc2c(c1)-c1nn(C)cc1Cc1c(-c3nc(C4CCOCC4)no3)ncn1-2 [Compound 220],–,–,< 100,20 to 50
Cn1cc2c(n1)-c1cc(Cl)ccc1-n1cnc(-c3cnn(CC4CCCO4)c3)c1C2 (stereo not drawn) [Compound 222],–,–,< 100,5 to 20
Cn1cc2c(n1)-c1cc(Cl)ccc1-n1cnc(-c3noc(C4COC4)n3)c1C2 [Compound 223],< 100,5 to 20,–,–
Clc1ccc2c(c1)-c1nn(CC3COC3)cc1Cc1c(-c3nc(C4CC4)no3)ncn1-2 [Compound 224],–,–,< 100,20 to 50
Cn1cc2c(n1)-c1cc(Cl)ccc1-n1cnc(-c3noc(C4(C)COC4)n3)c1C2 [Compound 225],–,–,< 100,20 to 50
COc1ccc2c(c1)-c1nn(CC3COC3)cc1Cc1c(-c3nc(C4CC4)no3)ncn1-2 [Compound 226],< 100,5 to 20,–,–
FC(F)(F)c1noc(-c2ncn3c2Cc2cn(C4CCOC4)nc2-c2cc(Cl)ccc2-3)n1 (stereo not drawn) [Compound 228],–,–,< 100,5 to 20
